Experimental findings from PubChem BioAssay (NCI) are described below.

Structures are written as SMILES. Values joined by “and” are separate entries in the source; they are usually repeats but may differ in a detail not shown here. Identical values can stand only once.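 Five compound concentrations were applied to cells in 96-well plates for 48 hours; endpoints were derived by simple linear interpolation of the resulting dose-response curve. Here, GI50 denotes the concentration required for 50% inhibition of growth. TGI denotes the concentration required for complete inhibition of growth.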 A value given as a limit tells only on which side of the number the result lay.

Some test systems named below: A498 renal; IGROV1 ovarian; MCF7 breast; RPMI-8226 leukemia; RXF 393 renal; U251 CNS; UACC-62 melanoma; UO-31 renal; SR leukemia; TK-10 renal.
Holding throughout (experiment): NCI tumour cell line growth inhibition, 48 h

With `CC1(C)CC23C4COC(=O)C2CCC1C3CC4=O` (configuration not stated), the TGI in the assay with A498 renal was determined as 13.8 µM; with IGROV1 ovarian, 69 µM; in the assay with MCF7 breast, 47.9 µM; with RPMI-8226 leukemia, 48.6 µM; in the assay on RXF 393 renal, 4.76 µM; in the assay on U251 CNS it was 50.7 µM. The TGI was 28.7 µM in the assay with UACC-62 melanoma and 90.1 µM in the assay on UO-31 renal.

For `COC1=C2CC(C)CC(OC)C(O)C(C)/C=C(\C)C(OC(N)=O)C(OC)/C=C\C=C(/C)C(=O)NC(=C(C=NC(C)(C)C)C1=O)C2=O` (configuration not stated), the TGI with A498 renal stood at 23.6 µM; in the assay with IGROV1 ovarian it was 53.2 µM; with MCF7 breast it was 35.7 µM; with RPMI-8226 leukemia, 13.5 µM; with RXF 393 renal, 4.89 µM; in the assay with U251 CNS, 21.9 µM. The TGI in the assay on UACC-62 melanoma came out at 17.6 µM; in the assay with UO-31 renal, 40.5 µM.

`CC[C@]1(O)C[C@H]2CN(CCc3c([nH]c4ccccc34)[C@@](C(=O)OC)(c3cc4c(cc3OC)N(C=O)[C@H]3[C@@](O)(C(=O)OC)[C@H](OC(C)=O)[C@]5(CC)C=CCN6CC[C@]43[C@@H]65)C2)C1`: the GI50 in the assay with A498 renal is 0.00192 µM; in the assay with SR leukemia, 0.00657 µM; with UO-31 renal, 0.476 µM. Further, the TGI was 17.5 µM and 74.1 µM in the assay on RXF 393 renal; 1.66 µM and 2.53 µM and 16.6 µM with U251 CNS; 38.4 µM and 75.1 µM in the assay on UACC-62 melanoma.

`COc1cc2c(cc1OC)-c1cc3ccccc3c[n+]1CC2`: the TGI in the assay on IGROV1 ovarian, in the assay with MCF7 breast, with RPMI-8226 leukemia, in the assay with RXF 393 renal, in the assay on SR leukemia and in the assay with TK-10 renal was greater than 100 µM throughout. Besides, the TGI with U251 CNS, in the assay on UACC-62 melanoma and in the assay with UO-31 renal was greater than 100 µM throughout.

For `O=C1OC(c2ccccc2)=N/C1=C\c1cccnc1`, the TGI in the assay with IGROV1 ovarian, with MCF7 breast, in the assay on RPMI-8226 leukemia, with RXF 393 renal, in the assay on SR leukemia and with TK-10 renal was greater than 100 µM throughout. The TGI with U251 CNS, with UACC-62 melanoma and with UO-31 renal was greater than 100 µM each time.

As for `CCS(=O)(=O)N1CCC(C(C)n2c(C)c(C(=O)NCc3c(OC)cc(C)[nH]c3=O)c3ccccc32)CC1` (configuration not stated), the GI50 with A498 renal is greater than 100 µM; with IGROV1 ovarian, 57.6 µM; in the assay on MCF7 breast, 25.8 µM; in the assay on RXF 393 renal, greater than 100 µM; in the assay with TK-10 renal it was greater than 100 µM; in the assay with U251 CNS, greater than 100 µM. Besides, the GI50 in the assay on UO-31 renal was greater than 100 µM. The TGI in the assay on A498 renal, in the assay with IGROV1 ovarian, in the assay with MCF7 breast, with RXF 393 renal, in the assay on TK-10 renal and in the assay on U251 CNS was greater than 100 µM throughout. In addition, the TGI with UO-31 renal is greater than 100 µM.

As for `N/C(=N\N=C/c1ccccc1O)NO`, the TGI with A498 renal was 44.4 µM; with IGROV1 ovarian it was greater than 100 µM; in the assay on MCF7 breast, 26.5 µM; in the assay with RPMI-8226 leukemia, 27 µM; with RXF 393 renal it was 25.9 µM; in the assay with U251 CNS, greater than 100 µM. Moreover, the TGI with UACC-62 melanoma is 38.4 µM; with UO-31 renal, greater than 95.5 µM.

As to `Fc1ccc2[nH]cc(-c3nc(-c4c[nH]c5ncccc45)cs3)c2c1`, the GI50 with A498 renal is 2.07 µM; in the assay with IGROV1 ovarian it was 4.46 µM; in the assay with MCF7 breast, 3.04 µM; in the assay with RXF 393 renal, greater than 100 µM; with SR leukemia, 2.79 µM; in the assay on TK-10 renal, greater than 100 µM. For the same compound, the figures for the GI50 in the assay with UACC-62 melanoma and in the assay with UO-31 renal were greater than 100 µM and 0.478 µM, respectively. In addition, the TGI in the assay with A498 renal, with IGROV1 ovarian, in the assay on MCF7 breast, with RXF 393 renal, with SR leukemia and in the assay on TK-10 renal was greater than 100 µM each time. Besides, the TGI in the assay with UACC-62 melanoma and in the assay with UO-31 renal was greater than 100 µM in each case.

`CS(=O)(=O)c1ccc(/C=N/NC(N)=S)cc1`: the TGI with A498 renal, in the assay on IGROV1 ovarian, in the assay on MCF7 breast, with RPMI-8226 leukemia, in the assay on RXF 393 renal and with TK-10 renal was greater than 100 µM throughout. Also, the TGI with U251 CNS, in the assay with UACC-62 melanoma and in the assay with UO-31 renal was greater than 100 µM throughout.

In the case of `O=C1OC[C@@H]2[C@@H](O)CCCCCN12`, the TGI in the assay with A498 renal, with IGROV1 ovarian, in the assay on MCF7 breast, with RPMI-8226 leukemia, in the assay on RXF 393 renal and with SR leukemia was greater than 100 µM throughout. The TGI in the assay on TK-10 renal, in the assay on U251 CNS, with UACC-62 melanoma and with UO-31 renal was greater than 100 µM in each case.

Consider `O=C(Nc1cccc(-n2ccc3c(NC(=O)c4ccccc4)nccc32)c1)c1ccc(N2CCOCC2)c(C(F)(F)F)c1`, for which the GI50 with A498 renal is 0.0357 µM; with IGROV1 ovarian, 0.057 µM; in the assay with MCF7 breast, 0.0397 µM; with RPMI-8226 leukemia, 0.0545 µM; in the assay with RXF 393 renal it was 0.0333 µM; with SR leukemia it was 0.045 µM. Besides, the GI50 with TK-10 renal was 0.0782 µM; with U251 CNS it was 0.0474 µM; in the assay with UACC-62 melanoma, 0.0414 µM; in the assay on UO-31 renal, 0.0537 µM. Moreover, the TGI in the assay with A498 renal was 4.72 µM; in the assay on IGROV1 ovarian, greater than 75.4 µM; with MCF7 breast, greater than 73.5 µM; in the assay on RPMI-8226 leukemia it was 13.1 µM; with RXF 393 renal, 2.69 µM; in the assay on SR leukemia, greater than 100 µM. Besides, the TGI with TK-10 renal was greater than 100 µM; in the assay on U251 CNS, greater than 100 µM; in the assay on UACC-62 melanoma it was 22.5 µM; in the assay with UO-31 renal, 37.8 µM.
